Marks after values point to notes of the source that are not given here.
Assays:
[1] = tested on: otic swelling caused by mixed inflammatory solution of croton oil; test: Otic swelling caused by mixed inflammatory solution of croton oil; format: in vivo, mice; conditions: 20 mg/kg once a day for 5 days
Method: 1. Impact on Otic Swelling Caused by Mixed Inflammatory Solution of Croton Oil. […] The treatments were administered to the mice once a day for 5 days. […] Four hours after inflammation, the mice were killed with a disjointed cervical vertebra method. The two ears were cut along the auricle baseline. Equal parts of the two ears (by area) were cut off and weighed on weighing scales to test twisting force. The degree of swelling/inflammation was obtained by subtracting the weight of the right ear from the weight of the left ear. The degrees of swelling between the control (contrast) groups and the test groups were analyzed statistically and the swelling inhibition rate was obtained.

tampon granuloma = test: Tampon granuloma of rats; format: in vivo; conditions: 20 mg/kg once a day for 7 days
Method: Impact on Tampon Granuloma of Rats The same experimental materials and animals as in Experimental Example 2 were used. However, sixty (60) 150-180 g male rats were used. Under ether anesthesia and normal disinfection, two±1 mg sterilized tampons were embedded under the inguinal skins on either side of the bodies. […] The treatments were administered into the rats' stomachs once a day for 7 days. On the eighth day, the rats were killed via a disjointed cervical vertebra method. The tampons were removed and placed in a 60° C. oven for 12 hours and then weighed.

[2] = tested on: prostate hyperplasia caused by testosterone propionate; test: Prostate hyperplasia caused by testosterone propionate in rats, comparison of anti-prostate hyperplasia medicaments (Experimental Example 1); format: in vivo, Wistar rats; conditions: for Prostate Gland Factors, Sum of three lobes (anterior, head and posterior lobes) / Inhibition rate % (Anterior lobe) / Inhibition rate % (Sum of three lobes): 30 days; for Inhibition rate % (Anterior lobe) / Inhibition rate % (Sum of three lobes): vs contrast group; for Prostate Gland Factors, Anterior lobe: once a day for 30 days, castrated rats + testosterone propionate 5 mg/Kg
Method: The effect of anti-prostate hyperplasia medicaments and the composition of the present invention in rats on prostate hyperplasia caused by testosterone propionate was evaluated as discussed below.
• 1. PROSCAR (5-α-reductase inhibitor): tablets, produced by Merck & Co., Inc., (UK) Co., prepared as 0.5 mg/ml medicament. • 2. Saw Palmetto tablets, produced by Zhejiang Conba Pharmaceutical Co. Ltd., prepared with distilled water into […]. • 3. Longbishu Capsules: produced by SHIJIAZHUAN KEDI Pharmaceutical Co., Ltd., prepared with distilled water into 0.18 g/ml medical liquid. • 4. The final extract of Example 9, prepared into […] medical liquid. • 5. Estradiol Benzoate injection • 6. Testosterone propionate injection Test Method and Results
Six 130 g-150 g male Wistar rats were anaesthetized with ether. The testes of each rat were removed under axenic conditions, and the test rats were bred for a week after operation. The rats were divided at random into 6 groups, with 6 rats in each group. All groups of animals were hyped each day with 5 mg/Kg testosterone propionate dissolved in prepared peanut oil. The control (contrast) groups were administered a physiological salt solution. The test groups were administered a treatment of 5 mg/Kg PROSCAR, 5 g/Kg Saw Palmetto, 1.8 g/Kg longbishu, and 6 g/Kg of the final extract obtained in Example 9 The treatment took the form of a1 ml/100 g medicament; for hypodermic injections of 50 μg/Kg estradiol benzoate, the volume was […], administered once a day for 30 days. 24 hours after the final treatment, all the rats were killed. The whole prostate glands were anatomized and placed in formalin. Extraneous fat was cut away from the prostate glands and the liquid on the surface was dried with filter papers. The prostate glands were then weighed with a tissue balance to calculate the weight.

[3] = tested on: testosterone propionate-induced prostate hyperplasia; test: Testosterone propionate-induced prostate hyperplasia in rats (Experimental Example 5); format: in vivo, Wistar rats
Method: Impact on Testosterone Propionate-Induced Prostate Hyperplasia in Rats
The same experimental materials and animals as in Experimental Example 2 were used. However, fifty (50) 130-150 g male Wistar rats were used. Under ether anesthesia and in sterilized surroundings, both testes of each rat were removed. The rats were then bred for a week after the operation. Next, the rats were randomly divided into 5 groups of 10 rats each. Each group of animals were hyped with 5 mg/kg testosterone propionate dissolved in prepared oil once a day. During the same time period, each group was also given one of the treatments: the control (contrast) group was administered a physiological saline solution; three test groups were administered a dose (1.5, 3 and 6 g/kg) of the extract from Example 9 in a preparation of 1 m/100 g. The positive control (contrast) group was hyped with 50 μg/kg estradiol benzoate in a volume of 0.05 ml/100 g, once a day for 30 days. After the last treatment, the rats were killed and their whole prostate glands were anatomized. The prostate glands were placed in formalin. All the fat was cut away from the prostate glands after they were removed from the formalin. The remaining formalin on the prostate gland surface was dried with filter papers. The prostate glands were then placed in 70% ethanol and fixed for 24 hours. Next, the prostate glands were removed from the ethanol and placed on filter papers. The anterior, head and posterior lobes of the prostate glands were separated and weighed on a weighing scale to test twisting force. The transverse diameter, diameter and height of the anterior lobes of the prostate glands were measured with a two-foot vernier. The volume of the anterior lobe of a prostate gland was obtained by multiplying the values of the three measurements. Finally, the anterior lobes were examined with tectology, and the diameter of the prostate gland cavity and the height of the glandular epithelium cells were measured. Non-pairing t-examinations among the groups were conducted for all indexes. The values of the treatment groups were compared to the control (contrast) groups in order to determine the average difference.

[4] = dose 50 g/Kg (so in the source), hypodermic
[5] = 50 μg/kg once a day for 30 days
[6] = estradiol benzoate 50 μg/kg, 30 days, vs control

Question: Which results are given for `CC(=O)OCC(=O)[C@@]1(O)CC[C@H]2[C@@H]3CCC4=CC(=O)CC[C@]4(C)[C@H]3[C@@H](O)C[C@@]21C` [Hydrocortisone, Hydrocortisone acetate]?
Answer: Inhabitation rate % [1]: 46.77%; Swelling degree (mg) (x ± SD) ([1]; 4 hours after croton oil): 9.50 ± 2.93 mg; Inhibition rate % (tampon granuloma): 42.43%; Weight of tampon granuloma (mg x ± SD) (tampon granuloma): 26.45 ± 2.61 mg

Question: Which “Prostate Gland Factors, Sum of three lobes (anterior, head and posterior lobes)” value ([2]; dose 5 mg/Kg) does the source give for `CC(C)(C)NC(=O)[C@H]1CC[C@H]2[C@@H]3CC[C@H]4NC(=O)C=C[C@]4(C)[C@H]3CC[C@]12C` [PROSCAR] here?
Answer: 453.4 ± 59.1 mg/100 g

Question: And the “Inhibition rate % (Anterior lobe)” value ([2]; dose 5 mg/Kg)?
Answer: 42.3** %

Question: And the “Inhibition rate % (Sum of three lobes)” value ([2]; dose 5 mg/Kg)?
Answer: 37.1** %

Question: And the “Prostate Gland Factors, Anterior lobe” value ([2]; dose 5 mg/Kg)?
Answer: 164.2 ± 31.4 mg/100 g

Question: `C[C@]12CC[C@@H]3c4ccc(OC(=O)c5ccccc5)cc4CC[C@H]3[C@@H]1CC[C@@H]2O` [estradiol benzoate, Estradiol Benzoate] was tested. Which “Prostate Gland Factors, Sum of three lobes (anterior, head and posterior lobes)” value [2, 4] did it give?
Answer: 585.3 ± 80.5 mg/100 g

Question: And the “Inhibition rate % (Anterior lobe)” value [2, 4]?
Answer: 36.7** %

Question: What about the “Inhibition rate % (Sum of three lobes)” value [2, 4] of the same molecule?
Answer: 18.8** %

Question: What about the “Prostate Gland Factors, Anterior lobe” value [2, 4] of the same molecule?
Answer: 180.1 ± 55.8 mg/100 g

Question: What about the “Volume of anterior lobe (cm3)” value [3, 5] of the same molecule?
Answer: 0.42 ± 0.12 cm3

Question: And the “rat prostate factors, Anterior lobe” value [3, 5]?
Answer: 127.2 ± 23.4 mg/100 g

Question: And the “rat prostate factors, Head lobe” value [3, 5]?
Answer: 51.2 ± 10.7 mg/100 g

Question: What about the “hyperplasia of the diameter of the glandular cavity of prostate anterior and head lobes (histology)” value ([3]; 30 days after treatment, microscopic examination) of the same molecule?
Answer: inhibit hyperplasia

Question: And the “inhibition rate for head lobes (weight)” value [3, 6]?
Answer: 30.2%

Question: And the “inhibition rate for posterior lobe (weight)” value [3, 6]?
Answer: 12.5%

Question: And the “inhibition rate for prostate anterior lobe (weight)” value [3, 6]?
Answer: 35.3%

Question: And the “inhibition rate, volume of prostate anterior lobe” value [3, 6]?
Answer: 45.5%

Reference: US7556828B2, “Pharmaceutical composition for treatment of BPH and preparation thereof” (priority 2003, dated 2009)
